For 21 molecules, Ki results are on record in patent US9815796B2 (Merck Sharp & Dohme Corp., priority 2013, dated 2017).

For experiment [1], the target named is Rhesus PDE2A3 (Macaca mulatta, UniProt B3VTJ2). Kind of experiment: PDE2 fluorescence polarization (IMAP FP) inhibition assay, rhesus enzyme. In kind it is biochemical, rhesus macaque. In a few lines:
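Rhesus PDE2A3 came from lysate of transiently transfected AD293 cells, diluted to give 20% substrate conversion. Substrate was 50 nM FAM-cAMP with 1 uM cGMP activator in Tris pH 7.2/MgCl2 buffer, run 60 min at room temperature over 10-point 3-fold dilutions in 1% DMSO. Read-out was IMAP fluorescence polarization (mP) after ≥1 h binding.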
Background: In fluorescence polarisation assays a small probe gives low polarisation when free and higher when bound to something large.

The target in experiment [2] is human PDE2A1 (Homo sapiens (Human), UniProt O00408). Put plainly: IMAP FP PDE selectivity panel, human PDE2A1. In kind it is biochemical. In a few lines: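 GST-tagged human PDE2A1 expressed in insect cells, run at room temperature for 60 min with 50 nM FAM-cAMP containing 1000 nM cGMP, pH 7.2 Tris/MgCl2 buffer. IMAP fluorescence polarization read after binding step.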
Chain of human PDE2A1 (O00408 other isoform, or with tags, fused parts or gaps): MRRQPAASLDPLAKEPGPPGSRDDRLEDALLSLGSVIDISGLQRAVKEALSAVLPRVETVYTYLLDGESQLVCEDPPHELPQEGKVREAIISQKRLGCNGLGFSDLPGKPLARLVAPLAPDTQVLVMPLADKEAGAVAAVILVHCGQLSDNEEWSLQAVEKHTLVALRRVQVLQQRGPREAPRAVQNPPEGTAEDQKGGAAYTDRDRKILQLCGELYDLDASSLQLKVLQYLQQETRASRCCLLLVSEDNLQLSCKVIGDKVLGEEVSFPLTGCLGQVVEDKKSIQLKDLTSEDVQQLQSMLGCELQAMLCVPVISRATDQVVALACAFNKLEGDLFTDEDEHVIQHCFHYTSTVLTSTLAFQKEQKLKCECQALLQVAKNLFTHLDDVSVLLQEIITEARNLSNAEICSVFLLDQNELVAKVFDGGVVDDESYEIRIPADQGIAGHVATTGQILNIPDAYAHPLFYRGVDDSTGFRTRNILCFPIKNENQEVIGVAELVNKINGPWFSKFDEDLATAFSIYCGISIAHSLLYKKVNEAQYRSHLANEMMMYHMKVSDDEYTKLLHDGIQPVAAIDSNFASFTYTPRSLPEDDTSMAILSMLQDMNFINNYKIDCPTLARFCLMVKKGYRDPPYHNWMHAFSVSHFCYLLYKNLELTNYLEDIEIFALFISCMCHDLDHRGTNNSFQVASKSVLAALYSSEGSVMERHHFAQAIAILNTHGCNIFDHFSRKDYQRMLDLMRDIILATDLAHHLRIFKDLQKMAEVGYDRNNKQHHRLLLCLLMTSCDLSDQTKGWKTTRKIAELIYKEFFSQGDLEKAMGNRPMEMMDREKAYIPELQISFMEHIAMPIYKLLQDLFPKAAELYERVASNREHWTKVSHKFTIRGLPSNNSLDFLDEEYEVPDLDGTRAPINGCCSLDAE

The mark [3] stands for this setting: Rhesus PDE2, Lab A, read-out: Rhesus PDE2 Ki (nM) - Lab A.
Setting [4] is: Human PDE2, Lab B, read-out: Human PDE2 Ki (nM) - Lab B.
Setting [5] is: Human PDE2, Lab A, read-out: Human PDE2 Ki (nM) - Lab A.
Setting [6] is: Rhesus PDE2, Lab B, read-out: Rhesus PDE2 Ki (nM) - Lab B.

The structures appear in SMILES notation. Read-outs that look alike come from different tables or passages of the source.

Chain of Rhesus PDE2A3 (B3VTJ2 1-941): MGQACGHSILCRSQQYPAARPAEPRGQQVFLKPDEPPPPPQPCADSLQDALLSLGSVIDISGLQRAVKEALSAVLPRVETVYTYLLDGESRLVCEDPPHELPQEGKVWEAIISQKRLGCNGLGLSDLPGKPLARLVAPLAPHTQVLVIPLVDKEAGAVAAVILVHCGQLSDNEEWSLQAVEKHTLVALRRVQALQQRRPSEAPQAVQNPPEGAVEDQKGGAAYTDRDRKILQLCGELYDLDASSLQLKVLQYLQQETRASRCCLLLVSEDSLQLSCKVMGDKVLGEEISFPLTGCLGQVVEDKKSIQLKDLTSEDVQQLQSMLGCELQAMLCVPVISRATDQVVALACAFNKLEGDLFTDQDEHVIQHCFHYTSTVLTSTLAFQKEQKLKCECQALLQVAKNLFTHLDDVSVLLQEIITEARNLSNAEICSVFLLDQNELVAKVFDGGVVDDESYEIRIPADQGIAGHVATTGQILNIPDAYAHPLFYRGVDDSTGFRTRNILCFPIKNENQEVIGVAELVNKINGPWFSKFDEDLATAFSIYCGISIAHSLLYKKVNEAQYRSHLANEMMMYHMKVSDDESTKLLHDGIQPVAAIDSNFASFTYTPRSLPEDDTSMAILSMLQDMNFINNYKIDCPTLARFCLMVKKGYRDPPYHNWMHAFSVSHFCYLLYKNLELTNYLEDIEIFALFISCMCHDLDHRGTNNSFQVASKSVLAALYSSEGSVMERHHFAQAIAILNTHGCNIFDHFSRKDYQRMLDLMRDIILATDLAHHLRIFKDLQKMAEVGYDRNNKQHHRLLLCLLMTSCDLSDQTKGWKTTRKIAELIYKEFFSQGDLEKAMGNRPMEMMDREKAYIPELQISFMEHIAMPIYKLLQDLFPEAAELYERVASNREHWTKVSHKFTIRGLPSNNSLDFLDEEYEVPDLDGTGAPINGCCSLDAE

As usually defined, the Ki is the dissociation constant of the complex between target and ligand, obtained from inhibition or displacement. As to `CC1Cc2cc(C(C)NC(=O)c3cc(=O)[nH]c(-c4ccccc4)n3)ccc2O1` (stereo not shown) [Example 379, N-[1-(2-methyl-2,3-dihydro-1-benzofuran-5-yl)ethyl]-6-oxo-2-phenyl-1,6-dihydropyrimidine-4-carboxamide], the Ki in experiment [1] (setting [3]) was found to be 69 nM; in experiment [2] (setting [4]), 114 nM.

As for `COc1ccc(Cc2nc(C(=O)N[C@H](C)c3ccc(C(F)(F)F)cc3)cc(=O)[nH]2)cc1` [Example 136, 2-(4-methoxybenzyl)-6-oxo-N-{(1R)-1-[4-(trifluoromethyl)phenyl]ethyl}-1,6-dihydropyrimidine-4-carboxamide], the Ki in experiment [1] (setting [3]) is 6.3 nM; in experiment [2] (setting [5]), 2.2 nM.

For `C[C@@H](NC(=O)c1cc(=O)[nH]c(-c2ccccc2)n1)c1ccc(C(F)(F)F)c(Cl)c1` [Example 190, N-{(1R)-1-[3-chloro-4-(trifluoromethyl)phenyl]ethyl}-6-oxo-2-phenyl-1,6-dihydropyrimidine-4-carboxamide], the Ki in experiment [1] (setting [3]) was determined as 6.4 nM; in experiment [2] (setting [5]), 6.1 nM.

Turning to `COc1cc(CNC(=O)c2cc(=O)[nH]c(-c3ccccc3)n2)cc(OC)c1OC` [Example 338, 6-oxo-2-phenyl-N-(3,4,5-trimethoxybenzyl)-1,6-dihydropyrimidine-4-carboxamide], the Ki in experiment [1] (setting [3]) was found to be 29 nM; in experiment [1] (setting [6]) it was 71 nM; in experiment [2] (setting [4]), 65 nM.

Turning to `CC[C@@H](NC(=O)c1cc(=O)[nH]c(Cc2ccc(OC)c(F)c2)n1)c1ccc(SC(F)(F)F)c(F)c1` [Example 519, 2-(3-fluoro-4-methoxybenzyl)-N-[(1R)-1-{3-fluoro-4-[(trifluoromethyl)sulfanyl]phenyl}propyl]-6-oxo-1,6-dihydropyrimidine-4-carboxamide], the Ki in experiment [1] (setting [6]) stood at 1.7 nM; in experiment [2] (setting [4]) it was 2 nM.

For `Cc1nc(C(=O)N[C@@H](c2ccc(S(F)(F)(F)(F)F)cc2)C2CC2)cc(=O)[nH]1` [Example 405, N-{(R)-cyclopropyl[4-(pentafluoro-λ^6-sulfanyl)phenyl]methyl}-2-methyl-6-oxo-1,6-dihydropyrimidine-4-carboxamide], the Ki was 17 nM in experiment [1] (setting [6]) and 15 nM in experiment [2] (setting [4]).

On to `O=C(NC1(c2ccc(C(F)(F)F)c(F)c2)CC1)c1cc(=O)[nH]c(C2CC2)n1` [Example 202, 2-cyclopropyl-N-{1-[3-fluoro-4-(trifluoromethyl)phenyl]cyclopropyl}-6-oxo-1,6-dihydropyrimidine-4-carboxamide], for which the results for the Ki in experiment [1] (setting [3]) and in experiment [2] (setting [5]) were 7.3 nM and 3 nM, respectively.

For `O=C(N[C@@H](c1ccc(OC(F)(F)F)c(F)c1)C1CC1)c1cc(=O)[nH]c(-c2ccccc2)n1` [Example 176], the values for the Ki in experiment [1] (setting [3]) and in experiment [2] (setting [5]) were 4.8 nM and 3.9 nM, respectively.

`Cc1nc(C(=O)NC(C)(C)c2ccc(C(F)(F)F)cc2F)cc(=O)[nH]1` [Example 596, N-{1-[2-fluoro-4-(trifluoromethyl)phenyl]-1-methylethyl}-2-methyl-6-oxo-1,6-dihydropyrimidine-4-carboxamide]: the Ki in experiment [1] (setting [6]) is 30 nM; in experiment [2] (setting [4]) it was 22 nM.

Regarding `COc1ccc(Cc2nc(C(=O)N[C@@H](c3ccc(OC(F)(F)F)c(F)c3)C(C)C)cc(=O)[nH]2)cc1F` [Example 515, 2-(3-fluoro-4-methoxybenzyl)-N-{(1R)-1-[3-fluoro-4-(trifluoromethoxy)phenyl]-2-methylpropyl}-6-oxo-1,6-dihydropyrimidine-4-carboxamide], the values for the Ki in experiment [1] (setting [6]) and in experiment [2] (setting [4]) were 1.1 nM and 1 nM, respectively.

Take `CC[C@@H](NC(=O)c1cc(=O)[nH]c(C)n1)c1ccc(OC(F)(F)F)cc1` [Example 31, 2-methyl-6-oxo-N-{(1R)-1-[4-(trifluoromethoxy)phenyl]propyl}-1,6-dihydropyrimidine-4-carboxamide]: the figures for the Ki in experiment [1] (setting [3]) and in experiment [2] (setting [5]) were 28 nM and 15 nM, respectively.

For `CC(NC(=O)c1cc(=O)[nH]c(-c2ccccc2)n1)c1ccc(C(F)(F)F)cc1Cl` (stereo not shown) [Example 147, N-{1-[2-chloro-4-(trifluoromethyl)phenyl]ethyl}-6-oxo-2-phenyl-1,6-dihydropyrimidine-4-carboxamide], the Ki in experiment [1] (setting [3]) was determined as 51 nM; in experiment [2] (setting [5]), 35 nM.

As to `Cc1nc(C(=O)N[C@@H](c2ccc(SC(F)(F)F)cc2)C(C)C)cc(=O)[nH]1` [Example 30, 2-methyl-N-[(1R)-2-methyl-1-{4-[(trifluoromethyl)sulfanyl]phenyl}propyl]-6-oxo-1,6-dihydropyrimidine-4-carboxamide], the Ki in experiment [1] (setting [3]) stood at 3.2 nM; in experiment [2] (setting [5]) it was 2.2 nM.

Consider `Cc1nc(C(=O)NC2(c3ccc(C(C)(C)C)cc3)CC2)cc(=O)[nH]1` [Example 623, N-[1-(4-tert-butylphenyl)cyclopropyl]-2-methyl-6-oxo-1,6-dihydropyrimidine-4-carboxamide], for which the Ki was 29 nM in experiment [1] (setting [6]) and 31 nM in experiment [2] (setting [4]).

With `C[C@@H](NC(=O)c1cc(=O)[nH]c(-c2ncccn2)n1)c1ccc(-c2ccccc2)cc1` [Example 287, N-[(1R)-1-biphenyl-4-ylethyl]-6-oxo-1,6-dihydro-2,2′-bipyrimidine-4-carboxamide], the Ki was 45 nM in experiment [1] (setting [3]) and 28 nM in experiment [2] (setting [5]).

`C[C@@H](NC(=O)c1cc(=O)[nH]c(C2CC2)n1)c1ccc(C(F)(F)F)cc1` [Example 11, 2-cyclopropyl-6-oxo-N-{(1R)-1-[4-(trifluoromethyl)phenyl]ethyl}-1,6-dihydropyrimidine-4-carboxamide]: the Ki turned out to be 21 nM in experiment [1] (setting [3]) and 16 nM in experiment [2] (setting [5]).

Turning to `O=C(NC1(c2ccc(C(F)(F)F)c(F)c2)CC1)c1cc(=O)[nH]c(-c2ccccc2)n1` [Example 145, N-{1-[3-fluoro-4-(trifluoromethyl)phenyl]cyclopropyl}-6-oxo-2-phenyl-1,6-dihydropyrimidine-4-carboxamide], the Ki in experiment [1] (setting [3]) was found to be 2.9 nM; in experiment [2] (setting [5]), 2.3 nM.

Take `O=C(N[C@@H](c1ccc(SC(F)(F)F)cc1)C1CC1)c1cc(=O)[nH]c(C2CC2)n1` [Example 214, 2-cyclopropyl-N-[(R)-cyclopropyl{4-[(trifluoromethyl)sulfanyl]phenyl}methyl]-6-oxo-1,6-dihydropyrimidine-4-carboxamide]: the Ki was found to be 5 nM in experiment [1] (setting [3]) and 2.4 nM in experiment [2] (setting [5]).

As to `O=C(NC1(c2ccc(SC(F)(F)F)cc2)CCC1)c1cc(=O)[nH]c(C2CC2)n1` [Example 204, 2-cyclopropyl-6-oxo-N-(1-{4-[(trifluoromethyl)sulfanyl]phenyl}cyclobutyl)-1,6-dihydropyrimidine-4-carboxamide], the Ki in experiment [1] (setting [3]) was 37 nM; in experiment [2] (setting [5]), 20 nM.

Consider `Cc1nc(C(=O)N[C@@H](c2ccc(OC(F)F)cc2)C(C)C)cc(=O)[nH]1` [Example 611, N-{(1R)-1-[4-(difluoromethoxy)phenyl]-2-methylpropyl}-2-methyl-6-oxo-1,6-dihydropyrimidine-4-carboxamide], for which the Ki came to 44 nM in experiment [1] (setting [6]) and 37 nM in experiment [2] (setting [4]).

Take `COc1ccc(Cc2nc(C(=O)N[C@@H](c3ccc(OC(F)(F)F)c(F)c3)C3CC3)cc(=O)[nH]2)cc1` [Example 478, N-{(R)-cyclopropyl[3-fluoro-4-(trifluoromethoxy)phenyl]methyl}-2-(4-methoxybenzyl)-6-oxo-1,6-dihydropyrimidine-4-carboxamide]: the Ki came to 2.1 nM in experiment [1] (setting [6]) and 1.7 nM in experiment [2] (setting [4]).
